Test systems include SK-OV-3 ovarian; CCRF-CEM leukemia; COLO 205 colon; MALME-3M melanoma; HOP-62 NSCLC; SF-268 CNS; UO-31 renal; A549 NSCLC; BT-549 breast; OVCAR-5 ovarian; SK-MEL-5 melanoma.
Common to all, as to experiment: growth of human tumour cells (NCI), 48 h

SMILES strings stand for the structures.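 Protocol summary: plate cells (96-well), add compound at 5 concentrations, incubate 48 h, interpolate endpoints linearly. TGI denotes the concentration required for complete inhibition of growth.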

On to `CN(C)C(=S)Nc1nnc(NC23CC4CC(CC(C4)C2)C3)s1`, for which the TGI in the experiment on SK-OV-3 ovarian came out at 80.1 µM; in the experiment with CCRF-CEM leukemia, 84.9 µM; in the experiment with COLO 205 colon, 44.1 µM; with MALME-3M melanoma it was 53.3 µM; in the experiment with HOP-62 NSCLC, 33.9 µM; in the experiment on SF-268 CNS, 48.5 µM. Moreover, the TGI with UO-31 renal is 25.2 µM; with A549 NSCLC, 36.5 µM.

Turning to `CC(C)(C)OC(=O)N1C(C2=COc3ccccc3O2)=COc2ccccc21`, the TGI in the experiment with SK-OV-3 ovarian is greater than 100 µM; in the experiment on BT-549 breast, 71.4 µM; with COLO 205 colon, 38.2 µM; with MALME-3M melanoma, 58.1 µM; in the experiment with HOP-62 NSCLC, 45.3 µM; in the experiment with SF-268 CNS, 64.4 µM. Also, the TGI in the experiment on OVCAR-5 ovarian was 99.1 µM; in the experiment with SK-MEL-5 melanoma it was 64.4 µM; with UO-31 renal, greater than 100 µM; in the experiment on A549 NSCLC, greater than 100 µM.

With `Nn1c(CNc2ccc(-c3nnc(Nc4ccc(Cl)cc4)n3N)cc2)nnc1Nc1ccc(Cl)cc1`, the TGI in the experiment on SK-OV-3 ovarian was greater than 100 µM; in the experiment with BT-549 breast, greater than 100 µM; in the experiment with COLO 205 colon, greater than 100 µM; with MALME-3M melanoma, greater than 100 µM; with HOP-62 NSCLC, 93 µM; in the experiment with SF-268 CNS, greater than 100 µM. The TGI with OVCAR-5 ovarian, in the experiment with SK-MEL-5 melanoma, in the experiment with UO-31 renal and in the experiment with A549 NSCLC was greater than 100 µM throughout.

On to `COC1/C=C\C=C(/C)C(=O)NC2=CC(=O)C=C(C2=O)C(OC)C(C)CC(OC)C(OC)C(C)/C=C(/C)C1OC(N)=O` (stereo not drawn), for which the TGI was 27.8 µM with SK-OV-3 ovarian; 1.85 µM in the experiment on CCRF-CEM leukemia; 11.4 µM in the experiment on COLO 205 colon; 0.826 µM in the experiment on MALME-3M melanoma; 8.05 µM with HOP-62 NSCLC; 26.6 µM in the experiment on SF-268 CNS. The TGI with OVCAR-5 ovarian is 28.8 µM; in the experiment on SK-MEL-5 melanoma, 20.9 µM; in the experiment with UO-31 renal, 30 µM; with A549 NSCLC it was 32.4 µM.

As to `NNC(N)=Nc1cccc2ccccc12`, the TGI in the experiment with SK-OV-3 ovarian, with CCRF-CEM leukemia, with COLO 205 colon, in the experiment on MALME-3M melanoma, in the experiment with HOP-62 NSCLC and in the experiment with SF-268 CNS was greater than 100 µM throughout. In addition, the TGI in the experiment on OVCAR-5 ovarian, in the experiment on SK-MEL-5 melanoma, with UO-31 renal and in the experiment with A549 NSCLC was greater than 100 µM in each case.

`C=CCn1c2ccccc2c2c(C)c3cnccc3c(C)c21`: the TGI in the experiment on SK-OV-3 ovarian was determined as 38.5 µM; with CCRF-CEM leukemia it was 24.5 µM; in the experiment with COLO 205 colon, 72.5 µM; in the experiment with MALME-3M melanoma it was 62 µM; with HOP-62 NSCLC, 36.3 µM; in the experiment on SF-268 CNS, 88.7 µM. Moreover, the TGI in the experiment with OVCAR-5 ovarian is 69.9 µM; with SK-MEL-5 melanoma, 56.9 µM; in the experiment with UO-31 renal it was 32.8 µM; in the experiment on A549 NSCLC, greater than 97.6 µM.

Take `O=C(O)CC(NC(=O)C(F)(F)F)C(=O)NC1Cc2ccccc2OC1=O` (stereo not drawn): the TGI in the experiment with SK-OV-3 ovarian, in the experiment on BT-549 breast, in the experiment on MALME-3M melanoma, in the experiment with HOP-62 NSCLC, in the experiment on SF-268 CNS and in the experiment with OVCAR-5 ovarian was greater than 100 µM in each case. Also, the TGI with SK-MEL-5 melanoma, with UO-31 renal and with A549 NSCLC was greater than 100 µM in each case.

For `O=C1/C(=C/c2ccc(O)cc2)NC(=S)N1CN1CCCCC1`, the TGI with SK-OV-3 ovarian was greater than 100 µM; with CCRF-CEM leukemia, greater than 100 µM; in the experiment with COLO 205 colon it was 56.4 µM; in the experiment on MALME-3M melanoma, greater than 100 µM; in the experiment on HOP-62 NSCLC it was greater than 100 µM; in the experiment with SF-268 CNS it was greater than 100 µM. The TGI in the experiment with OVCAR-5 ovarian, with SK-MEL-5 melanoma, in the experiment on UO-31 renal and with A549 NSCLC was greater than 100 µM throughout.

Regarding `ON=C1CCCCC(=NO)CCCC1`, the TGI with SK-OV-3 ovarian, with BT-549 breast, with COLO 205 colon, with MALME-3M melanoma, in the experiment with SF-268 CNS and in the experiment on SK-MEL-5 melanoma was greater than 100 µM throughout. Moreover, the TGI in the experiment with UO-31 renal and with A549 NSCLC was greater than 100 µM throughout.

Turning to `CN(c1c(Cl)cccc1Cl)S(=O)(=O)c1ccccc1[N+](=O)[O-]`, the TGI in the experiment on SK-OV-3 ovarian, in the experiment with BT-549 breast, in the experiment with COLO 205 colon, in the experiment on MALME-3M melanoma, in the experiment on HOP-62 NSCLC and in the experiment on SF-268 CNS was greater than 100 µM each time. Further, the TGI with OVCAR-5 ovarian, in the experiment on UO-31 renal and in the experiment on A549 NSCLC was greater than 100 µM each time.

As for `Cc1ccc2nc3c(C(=O)NCCN(C)C)cccc3cc2c1`, the TGI in the experiment on SK-OV-3 ovarian was found to be 6.66 µM; in the experiment on CCRF-CEM leukemia it was 5.28 µM; in the experiment on COLO 205 colon, 3.25 µM; in the experiment on MALME-3M melanoma, 4.58 µM; in the experiment with HOP-62 NSCLC, 7.05 µM; in the experiment with SF-268 CNS, 2.52 µM. The TGI with OVCAR-5 ovarian was 5.64 µM; in the experiment with SK-MEL-5 melanoma, 3.41 µM; in the experiment with UO-31 renal, 2.96 µM; in the experiment with A549 NSCLC, 4 µM.

For `Cc1c2c(c(C)c3c[n+](C)ccc13)Oc1ccccc1O2`, the TGI in the experiment with SK-OV-3 ovarian is greater than 84.5 µM; in the experiment on CCRF-CEM leukemia it was 37.6 µM; in the experiment with COLO 205 colon it was greater than 52.9 µM; in the experiment on MALME-3M melanoma it was 19.1 µM; in the experiment with HOP-62 NSCLC it was 33.4 µM; in the experiment on SF-268 CNS, 11.8 µM. Moreover, the TGI in the experiment with OVCAR-5 ovarian was greater than 31.6 µM; in the experiment with SK-MEL-5 melanoma, 42.5 µM; in the experiment on UO-31 renal, greater than 100 µM; with A549 NSCLC, greater than 100 µM.

With `O=C(NC(=O)c1cn(CCN2CCNCC2)c(=O)[nH]c1=O)OCc1ccccc1`, the TGI with SK-OV-3 ovarian, with CCRF-CEM leukemia, in the experiment with COLO 205 colon, in the experiment on MALME-3M melanoma, with HOP-62 NSCLC and in the experiment on SF-268 CNS was greater than 100 µM throughout. Also, the TGI in the experiment with OVCAR-5 ovarian, with SK-MEL-5 melanoma and with A549 NSCLC was greater than 100 µM throughout.

As to `NCCCNCCSSCc1ccccc1CSSCCNCCCN`, the TGI was greater than 100 µM with SK-OV-3 ovarian; 29.8 µM in the experiment with CCRF-CEM leukemia; greater than 100 µM in the experiment on COLO 205 colon; greater than 100 µM with MALME-3M melanoma; greater than 100 µM in the experiment with HOP-62 NSCLC; greater than 100 µM in the experiment with SF-268 CNS. For the same compound, the TGI in the experiment on OVCAR-5 ovarian, with SK-MEL-5 melanoma, in the experiment on UO-31 renal and with A549 NSCLC was greater than 100 µM each time.
